Test system: SARS-CoV-2 Omicron variant BA.1
Format: cell-based
Details: read-out: EC50 against SARS-CoV-2 Omicron variant BA.1

CC(C)OC(=O)[C@H](C)N[P@](=O)(OC[C@H]1O[C@@](C#N)(c2ccc3c(N)ncnn23)[C@H](O)[C@@H]1O)Oc1ccccc1 [IsoRDV]
EC50: 540 nM

From article PMC11246197 (Journal of medicinal chemistry, 2024)
